This is an account of results in patent US5721266A, “Substituted imidazolinyl-imidazolines as antagonists of SH-2 binding and therapeutic uses thereof” (Warner-Lambert Company, priority 1994, dated 1998).

Assay [1] concerns the target T1, [35S]abl SH-2 / activated EGF receptor (Homo sapiens, UniProt P00519).
T1 construct: containing the SH-2 domain of abl; made in house; host or cells: abl SH-2 fusion: bacteria, labelled in vivo with 35S; EGFR partner: EGF-treated 3T3 cells transfected with human EGFR, immunoprecipitated
T1 sequence (P00519 127-217 limits assumed): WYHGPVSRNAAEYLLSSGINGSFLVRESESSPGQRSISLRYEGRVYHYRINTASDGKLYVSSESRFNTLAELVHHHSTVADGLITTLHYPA
In words: in vitro inhibition of [35S]abl SH-2 interactions with activated EGF receptor. It is filed as binding. As for the experimental part:
The ability of some of the preferred compounds of the present invention to inhibit SH-2 interactions with activated tyrosine kinase receptors was measured using an in vitro biological assay. The test assesses the ability of a test compound to inhibit the interaction of [^35 S]abl SH-2 with activated EGF receptors, or with other receptor tyrosine kinases.
A bacterial glutathione-S-transferase fusion protein, containing the SH-2 domain of abl, is labelled in vivo with ^35 S. Phosphorylated EGFR is purified from EGF-treated 3T3 cells transfected with the human EGFR by precipitation with anti-EGFR antisera. The resulting immune complex is bound to protein A--Sepharose beads. Binding of the ^35 S labelled abl fusion protein (77 nM) to the purified EGFR beads complex (approximately 1 μg of receptor/assay) is allowed to proceed to equilibrium (30 minutes) in a total volume of 0.4 mL, in the presence of the test compounds. Bound ^35 S fusion protein is separated from free by filtration through 0.65 μ DUPP filters, and radioactivity is determined by scintillation counting.
Results of the binding study are expressed in Table 1 as IC50 values, i.e., the concentration of test compound required to inhibit [^35 S]abl SH-2 interactions with the activated EGF receptor.

In assay [2] the test system is Rat Aortic Smooth Muscle Cells (RASMC). In words: [3H]Thymidine Incorporation Assay, smooth muscle cell proliferation stimulated by serum. It is filed as cell-based. The settings on record: 22 hours. As to the method:
(§1) SH-2 tyrosine kinase inhibitors may block the signal transduction pathways for platelet derived growth factor ("PDGF") and fibroblast growth factor ("FGF"), which have been implicated in the control of smooth muscle cell proliferation. The ability of some of the preferred compounds of the present invention to inhibit smooth muscle cell (SMC) proliferation stimulated by PDGF or serum was measured using the biological assay discussed below.
(§2) Rat Aortic Smooth Muscle Cells (RASMC) were plated into a 24-well plate (30,000 cells/well) in DMEM with 10% Fetal Bovine Serum (FBS). After 4 days cells reached confluence and were made quiescent by incubation in DMEM/F12 medium (Gibco) containing 0.2% FBS for another 2 days. Incubation with the growth factors, PDGF-BB and bFGF as well as FBS, and test compound was carried out in 0.5 mL/well serum-substituted medium (DMEM/F12+1% CPSR-2 from Sigma) for 22 hours. After 18 hours, 0.25 μCi/well [^3 H]thymidine was added. Four hours later the incubation was stopped by removing the radioactive media, washing the cells twice with 1 mL cold phosphate-buffered saline, and then washing 2 times with cold 5% trichloroacetic acid. The acid-insoluble fraction was lysed in 0.75 mL 0.25N NaOH and the radioactivity determined by liquid scintillation counting.
(§3) Smooth muscle cells were isolated from the thoracic aorta of rats (RASMC) and explanted according to the method of Ross, et al., Cell Biology 50:172-186 (1971). Cells were grown in Dulbecco's modified Eagle's medium (DMEM, Gibco) containing 10% fetal calf serum (FBS, Hyclone, Logan, Utah), 1% glutamine (Gibco), and 1% penicillin/streptomycin (Gibco). Cells were identified as smooth muscle cells by their "hill and valley" growth pattern and by fluorescent staining with a monoclonal antibody specific for SMC α-actin (Sigma). RASMC were used between passages 5 and 20 for all experiments. Test compounds were prepared in dimethylsulfoxide (DMSO) in order to achieve consistency in the vehicle and to ensure compound solubility. Appropriate DMSO controls were simultaneously evaluated with the test compounds.
(§4) The results of the cellular proliferation assay are expressed in Table 2 as IC50 values, i.e., the concentration of test compound required to inhibit [^3 H]thymidine incorporation into smooth muscle cells.
(In general: Uptake of a labelled nucleoside into DNA is a usual measure of proliferation.)

For assay [3] the test system is unchanged. The assay can be described thus: [3H]Thymidine Incorporation Assay, smooth muscle cell proliferation stimulated by PDGF. It is filed as cell-based. Particulars: 22 hours. As to the method: as §1, §2, §3, §4
The next assay concerns K562. The assay can be described thus: inhibition of growth of tumor cells, K562. It is filed as cell-based. The settings on record: 96 h, human chronic myelogenous leukemia, expresses p210 bcr-abl, 4 days. As to the method:
(§5) In one screen, K562 human erythroleukemic cells were seeded at 6×10^4 cells/mL in RPMI 1640 medium containing 10% fetal bovine serum. These cells score positively for the Philadelphia chromosome, and are known to be transformed by the bcr-abl oncogene. At the time of seeding, test compound, or vehicle (DMSO), were added. Cells were counted 4 days after seeding using a hemocytometer.
The results of this experiment for a representative compound of the present invention appears in Table 3. Test Compound A is N,N'-decamethylenebis[2-amino-1-(2-imidazolin-2-yl)-2-imidazoline, dihydroiodide. The inhibition of growth of tumor cells is expressed as IC50 values; i.e., the concentration of test compound required to inhibit growth of the tumor cells by 50%.

In a further assay the test system is KG-1A. The assay can be described thus: inhibition of growth of tumor cells, KG-1A. It is filed as cell-based. Particulars: human acute myelogenous leukemia, no bcr-abl.
The next assay concerns MOLT-4. In words: inhibition of growth of tumor cells, MOLT-4. It is filed as cell-based. The settings on record: human acute lymphoblastic leukemia, no bcr-abl.
The next assay deals with A431. In words: inhibition of growth of tumor cells, A431. It is filed as cell-based. The settings on record: A-431, human epidermoid carcinoma, overexpresses EGF receptor.
The next assay relates to SWISS 3T3. In words: inhibition of cell growth, SWISS 3T3. It is filed as cell-based. Particulars: mouse fibroblast.
For another assay, the system named is HCT-8. The assay can be described thus: inhibition of growth of tumor cells, HCT-8. It is filed as cell-based. Particulars: human colon carcinoma, 18,000 EGF receptors/cell.
Another assay has as its system L1210. The assay can be described thus: inhibition of growth of tumor cells, L1210. It is filed as cell-based. The settings on record: mouse lymphocytic leukemia.
The subject of a further assay is MCF-7. The assay can be described thus: inhibition of growth of tumor cells, MCF-7. It is filed as cell-based. The settings on record: Homo sapiens, MCF7, estrogen dependent breast adenocarcinoma, 3000 EGF receptors/cell, some erbB2.
Another assay deals with MDA-231. In words: inhibition of growth of tumor cells, MDA-231. It is filed as cell-based. Particulars: Homo sapiens, MDA-MB-231, breast adenocarcinoma, moderate EGFR and erbB2.
In another assay the test system is MDA-468. In words: inhibition of growth of tumor cells, MDA-468. It is filed as cell-based. The settings on record: estrogen independent breast adenocarcinoma, overexpresses EGF receptor.
The subject of the next assay is NIH 2.2. In words: inhibition of cell growth, NIH 2.2. Particulars: mouse fibroblast, no EGF receptor. It is filed as cell-based.
For the next assay, the system named is NIH EGF-R. The assay can be described thus: inhibition of cell growth, NIH EGF-R. Particulars: mouse fibroblast, high expression of EGF receptor. It is filed as cell-based.
Assay [4] deals with K562 cell line. In words: viability of the K562 cell line (FIGS. 1 and 2). It is filed as cell-based, human. As for the experimental part: as §5
(§6) In this example, an experiment was conducted to determine the inhibition of the growth of tumor cells from the K562 cell line upon exposure to Test Compound A specified in Example 3. The screen was conducted as described in Example 3.

Assay [5] relates to K562 cell line. The assay can be described thus: proliferation of K562 cell line (FIG. 3). It is filed as cell-based, human. Particulars: FIG. 3, wide range of concentrations. As to the method:
as §5, §6

The subject of the next assay is KG-1A cell line. In words: proliferation of KG-1A cell line (FIG. 3). Particulars: FIG. 3, wide range of concentrations. It is filed as cell-based, human. As for the experimental part: [The procedure below names another cell line; the source lists this cell line under the same test.] as §5, §6
[6] abbreviates: [35S]abl SH-2 binding to activated EGF receptor, values in nM, read-out: IC50.
Setting [7] is: [35S]abl SH-2 binding to activated EGF receptor, values in μM, read-out: IC50.

The term IC50 denotes the concentration that inhibits the measured activity by half.

Molecules are shown by their SMILES. Where two headings read alike, the source gives them in different places.

Take `C(CCCCCNC1=NCCN1C1=NCCN1)CCCCCNC1=NCCN1C1=NCCN1`: the half-inhibitory concentration (IC50) in assay [1] (setting [6]) turned out to be 600 nM.
In turn, `C(CCCCCCNC1=NCCN1C1=NCCN1)CCCCCNC1=NCCN1C1=NCCN1` returned an IC50 in assay [1] of 1200 nM.
In the case of `CCCCCCCNC1=NCCN1C1=NCCN1` [drawing 21, 2-(Heptylamino)-1-(2-imidazolin-2-yl)-2-imidazoline, monohydroiodide], the IC50 in assay [2] turned out to be 6.4 µM; in assay [3], 3 µM.
Turning to `C(CCCNC1=NCCN1C1=NCCN1)CCNC1=NCCN1C1=NCCN1`, the half-maximal inhibitory concentration (IC50) in assay [1] (setting [6]) came out at 100 nM.
For the compound `CCCCCCCCCCCCCN=C1NCCN1C1=NCCN1` [(4,5,4',5'-Tetrahydro-3H,1'H-[1,2']biimidazolyl-2-ylidene)-tridecyl-amine], the half-maximal inhibitory concentration (IC50) in [1] (setting [7]) amounted to 50000 nM.
For the compound `C(CCNC1=NCCN1C1=NCCN1)CNC1=NCCN1C1=NCCN1`, in assay [1] (setting [7]), the IC50 is 27000 nM.
In the case of `C(CCNC1=NCCN1C1=NCCN1)CCNC1=NCCN1C1=NCCN1`, the half-inhibitory concentration (IC50) is 259000 nM in assay [1] (setting [7]), more than 100 µM in assay [2] and 74 µM in assay [3].
Turning to `C1CCCCCC(NC2=NCCN2C2=NCCN2)CCCCC1` [drawing 11, 2-Cyclododecylamino-1-(2-imidazolin-2-yl)-2-imidazoline, monohydroiodide], the IC50 in assay [1] (setting [7]) is more than 100000 nM.
In the case of `C(CCCCNC1=NCCN1C1=NCCN1)CCCNC1=NCCN1C1=NCCN1`, the IC50 in assay [1] (setting [7]) was determined as 33000 nM; in assay [2], 62 µM; in assay [3] it was 40 µM.
The compound `C(CCCCNC1=NCCN1C1=NCCN1)CCCCNC1=NCCN1C1=NCCN1` displayed a 50% inhibitory concentration (IC50) in assay [1] of 1300 nM.
For the compound `C(CCCNC1=NCCN1C1=NCCN1)CCCNC1=NCCN1C1=NCCN1`, the half-maximal inhibitory concentration (IC50) in assay [1] (setting [7]) amounted to 38000 nM.
On the same count and under the same terms, in the case of `C(CN=C1NCCN1C1=NCCN1)CN1CCN(CCCN=C2NCCN2C2=NCCN2)CC1` [2-(3-{4-[3-(4,5,4',5'-Tetrahydro-3H,1'H-[1,2']biimidazolyl-2-ylideneamino)-propyl]-piperazin-1-yl}-propylimino)-2,3,4,5,4',5'-hexahydro-1'H-[1,2']biimidazolyl] it was 10000 nM.
Take `C(CCCCCNC1=NCCN1C1=NCCN1)CCCCNC1=NCCN1C1=NCCN1` [Compound A]: the IC50 worked out at 50 nM in assay [1] (setting [6]); 5 µM in [2]; 2.8 µM in assay [3]; 0.6 µM with K562; 100 µM with KG-1A; 2.1 µM in the assay with MOLT-4. The IC50 was 4.4 µM in the assay on A431; more than 50 µM in the assay on SWISS 3T3; 6.6 µM in the assay with HCT-8; 1 µM with L1210; 7.8 µM with MCF-7; 14 µM in the assay on MDA-231. Also, the IC50 in the assay with MDA-468 was 0.9 µM; with NIH 2.2 it was more than 25 µM; in the assay on NIH EGF-R it was more than 25 µM. For the same compound, in the assay with K562 cell line [4] (FIG. 1, increased concentrations), the “viability of the K562 cell line” value is given as “steadily decline”. Moreover, the “viability of the K562 cell line over time” value with K562 cell line [4] (FIG. 2, 3 μM versus 0.3 μM, compared against a control) is on record as “substantially greater effect at decreasing the viability”. Moreover, in the assay with K562 cell line [5], the “growth rate of the K562 cell line” value was “substantially decreased”. In the assay on KG-1A cell line, the “growth rate of the KG-1A cell line” value is “only slightly decreased”.
Regarding `CCCCCCCNC1=NCCN1C1=NCCN1` [drawing 7, 2-(Heptylamino)-1-(2-imidazolin-2-yl)-2-imidazoline, monohydroiodide], the IC50 in assay [1] (setting [7]) is 10000 to 100000 nM.
`C1CCCCCC(NC2=NCCN2C2=NCCN2)CCCCC1` [drawing 25, 2-Cyclododecylamino-1-(2-imidazolin-2-yl)-2-imidazoline, monohydroiodide]: the IC50 in assay [2] was 1.1 µM; in assay [3] it was less than 1 µM.
Turning to `CCCCCCCCCCCCCCCCCNC1=NCCN1C1=NCCN1` [2-(Heptadecylamino)-1-(2-imidazolin-2-yl)-2-imidazoline, monohydroiodide], the IC50 in assay [1] (setting [7]) was 1320 nM; in [2], less than 1 µM; in [3], less than 1 µM.
